Experimental data taken from ChEMBL document CHEMBL1146573, “Antioxidant activity of a new capsaicin derivative from Capsicum annuum” (J Nat Prod, 2003).

Assay: Antioxidant activity in egg yolk liposomes assessed as inhibition of ADP/Fe(2+)-induced lipid peroxidation after 15 mins by TBARS method
Format: functional

IC50 [µM] | SMILES
> 10 | COc1cc(CNC(=O)CCCC/C=C/C(C)C)cc(-c2cc(CNC(=O)CCCCCCC(C)C)cc(OC)c2O)c1O
250 | Cc1c(C)c2c(c(C)c1O)CC[C@@](C)(CCC[C@H](C)CCC[C@H](C)CCCC(C)C)O2 [ALPHA-TOCOPHEROL]
